Laboratory results as given in PubChem BioAssay (NCI).
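Growth conditions: 96-well plates. Treatment: test compound, 48 hours, 5 concentrations. Analysis: linear interpolation between bracketing concentrations; unreached endpoints set to highest concentration. GI50 = concentration required for 50% inhibition of growth. TGI denotes the concentration required for complete inhibition of growth.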

Assays:
Experiment in all cases: NCI anticancer screen, dose series, 48 h
SF-268 CNS = tested on: SF-268 CNS
OVCAR-4 ovarian = tested on: OVCAR-4 ovarian
HOP-62 NSCLC = tested on: HOP-62 NSCLC
HCC-2998 colon = tested on: HCC-2998 colon
T-47D breast = tested on: T-47D breast
HOP-92 NSCLC = tested on: HOP-92 NSCLC
SNB-19 CNS = tested on: SNB-19 CNS
SNB-75 CNS = tested on: SNB-75 CNS
MDA-MB-435 = tested on: MDA-MB-435
RXF 393 renal = tested on: RXF 393 renal
BT-549 breast = tested on: BT-549 breast
SF-295 CNS = tested on: SF-295 CNS
TK-10 renal = tested on: TK-10 renal
DU-145 prostate = tested on: DU-145 prostate
SK-OV-3 ovarian = tested on: SK-OV-3 ovarian
A498 renal = tested on: A498 renal
A549 NSCLC = tested on: A549 NSCLC
NCI/ADR-RES ovarian = tested on: NCI/ADR-RES ovarian
HT29 colon = tested on: HT29 colon
K-562 leukemia = tested on: K-562 leukemia
HCT-15 colon = tested on: HCT-15 colon
MALME-3M melanoma = tested on: MALME-3M melanoma
ACHN renal = tested on: ACHN renal
SK-MEL-2 melanoma = tested on: SK-MEL-2 melanoma
HS 578T breast = tested on: HS 578T breast
COLO 205 colon = tested on: COLO 205 colon
EKVX NSCLC = tested on: EKVX NSCLC
OVCAR-3 ovarian = tested on: OVCAR-3 ovarian

C=C(CN1CCN(c2ccc(F)c(Cl)c2)CC1)c1ccc(C(=O)Nc2ccccc2N)cc1
GI50 (SF-268 CNS): 4.35 µM
TGI (SF-268 CNS): > 100 µM
GI50 (OVCAR-4 ovarian): > 100 µM
TGI (OVCAR-4 ovarian): > 100 µM
GI50 (HOP-62 NSCLC): 3.09 µM
TGI (HOP-62 NSCLC): 16.4 µM
GI50 (HCC-2998 colon): 9.47 µM
TGI (HCC-2998 colon): 24.9 µM
GI50 (T-47D breast): > 100 µM
TGI (T-47D breast): > 100 µM
GI50 (HOP-92 NSCLC): 2150 nM
TGI (HOP-92 NSCLC): 11.6 µM
GI50 (SNB-19 CNS): > 100 µM
TGI (SNB-19 CNS): > 100 µM
GI50 (SNB-75 CNS): > 100 µM
TGI (SNB-75 CNS): > 100 µM
GI50 (MDA-MB-435): 3.2 µM
TGI (MDA-MB-435): 12.6 µM
GI50 (RXF 393 renal): 3.84 µM
TGI (RXF 393 renal): 39.2 µM
GI50 (BT-549 breast): 3.51 µM
TGI (BT-549 breast): 26.5 µM
GI50 (SF-295 CNS): 6.95 µM
TGI (SF-295 CNS): > 100 µM
GI50 (TK-10 renal): 18.2 µM
TGI (TK-10 renal): 97.5 µM
GI50 (DU-145 prostate): 8.76 µM
TGI (DU-145 prostate): 40.4 µM
GI50 (SK-OV-3 ovarian): > 100 µM
TGI (SK-OV-3 ovarian): > 100 µM
GI50 (A498 renal): 9.67 µM
TGI (A498 renal): 44.1 µM
GI50 (A549 NSCLC): 3.81 µM
TGI (A549 NSCLC): 24.5 µM
GI50 (NCI/ADR-RES ovarian): 2010 nM
TGI (NCI/ADR-RES ovarian): 5.09 µM
GI50 (HT29 colon): 2320 nM
TGI (HT29 colon): > 100 µM
GI50 (K-562 leukemia): 2410 nM
TGI (K-562 leukemia): 14.2 µM
GI50 (HCT-15 colon): 5.38 µM
TGI (HCT-15 colon): > 100 µM
GI50 (MALME-3M melanoma): 4.35 µM
TGI (MALME-3M melanoma): 37.2 µM
GI50 (ACHN renal): 6.43 µM
TGI (ACHN renal): > 100 µM
GI50 (SK-MEL-2 melanoma): 6.12 µM
TGI (SK-MEL-2 melanoma): 64 µM
GI50 (HS 578T breast): 7.39 µM
TGI (HS 578T breast): > 100 µM
GI50 (COLO 205 colon): > 100 µM
TGI (COLO 205 colon): > 100 µM
GI50 (EKVX NSCLC): 15.8 µM
TGI (EKVX NSCLC): > 100 µM
GI50 (OVCAR-3 ovarian): 6.18 µM
TGI (OVCAR-3 ovarian): 58.9 µM
